{
  "source": "patent US12133856B2",
  "about": "“Multi-substituent psilocybin derivatives and methods of using” (Enveric Biosciences Canada Inc., priority 2021, dated 2024)",
  "key": {"5-HT1A receptor": {"target": "T1, 5-HT1A receptor (Homo sapiens, UniProt P08908)", "T1 construct": "host or cells: CHO-K1 (co-expressing Gα15)", "T1 sequence (P08908 1-422)": "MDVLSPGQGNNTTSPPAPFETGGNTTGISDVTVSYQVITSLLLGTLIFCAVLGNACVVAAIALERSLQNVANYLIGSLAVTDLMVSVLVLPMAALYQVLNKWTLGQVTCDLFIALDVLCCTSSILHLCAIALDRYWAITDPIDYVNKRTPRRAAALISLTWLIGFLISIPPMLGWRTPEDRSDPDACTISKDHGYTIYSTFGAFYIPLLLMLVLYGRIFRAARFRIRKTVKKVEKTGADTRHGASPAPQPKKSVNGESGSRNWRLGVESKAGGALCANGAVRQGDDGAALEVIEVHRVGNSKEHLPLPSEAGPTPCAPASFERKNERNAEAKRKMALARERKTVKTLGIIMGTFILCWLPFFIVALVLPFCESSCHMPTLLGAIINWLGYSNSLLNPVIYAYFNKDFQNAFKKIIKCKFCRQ", "assay": "cAMP-Glo assay of 5-HT1A receptor modulation with 4 μM forskolin in CHO-K1/5-HT1A/Gα15 (+5-HT1A) versus CHO-K1/Gα15 (−5-HT1A) cells", "format": "cell-based", "conditions": "fixed 4 μM forskolin; cAMP relative (%) to ligand-free samples; decrease = 5-HT1A activity, no difference = no modulation", "text": "CHO-K1/Gα15 (GenScript, M00257) (−5-HT1A) and CHO-K1/5-HT1A/Gα15 (GenScript, M00330) (+5-HT1A) cells lines were used. Briefly, CHO-K1/Gα15 is a control cell line that constitutively expresses Gα15 which is a promiscuous Gq protein. This control cell line lacks any transgene encoding 5-HT1A receptors, but still responds to forskolin; thus, cAMP response to forskolin should be the same regardless of whether or not 5-HT1A agonists are present. Conversely, CHO-K1/5-HT1A/Gα15 cells stably express 5-HT1A receptor in the CHO-K1 host background. […] In +5-HT1A cells, Gα15 may be recruited in place of Gαi/o, which could theoretically dampen cAMP response (Rojas and Fiedler 2016, Front Cell Neurosci 10: 272). […] In contrast, tryptophan is not known to activate, or modulate in any way, 5-HT1A receptors, and was thus used as a negative control. Cells were maintained in complete growth media as recommended by supplier (GenScript) which is constituted as follows: Ham's F12 Nutrient mix (HAM's F12, GIBCO #11765-047) with 10% fetal bovine serum (FBS) (Thermo Scientific #12483020), 200 μg/ml zeocin (Thermo Scientific #R25005) and/or 100 μg/ml hygromycin (Thermo Scientific #10687010). The cells were cultured in a humidified incubator with 37° C. and 5% CO2. Cells maintenance was carried out as recommended by the cell supplier. Briefly, vials with cells were removed from the liquid nitrogen and thawed quickly in 37° C. water bath. Just before the cells were completely thawed the vial's outside was decontaminated by 70% ethanol spray. The cell suspension was then retrieved from the vial and added to warm (37° C.) complete growth media, and centrifuged at 1,000 rpm for 5 minutes. The supernatant was discarded, and the cell pellet was then resuspended in another 10 ml of complete growth media, and added to the 10 cm cell culture dish (Greiner Bio-One #664160). The media was changed every third day until the cells were about 90% confluent. The ˜90% confluent cells were then split 10:1 for maintenance or used for experiment.\nAs 5-HT1A activation inhibits cAMP formation, the ability of test molecules to modulate 5-HT1A response was measured via changes in the levels of cAMP produced due to application of 4 μM forskolin. […] Briefly, +5-HT1A cells were seeded on 1-6 columns and base −5-HT1A cells were seeded on columns 7-12 of the white walled clear bottom 96-well plate (Corning, #3903). Both cells were seeded at the density of 30,000 cells/well in 100 μl complete growth media and cultured 24 hrs in humidified incubator at 37° C. and 5% CO2. On the experiment day, the media of cells was replaced with serum/antibiotic free culture media. […] Forskolin induced cAMP formation whereas IBMX and RO 20-1724 inhibited the degradation of cAMP. PKA was added to the lysate, mixed, and subsequently the substrate of the PKA was added. PKA was activated by cAMP, and the amount of ATP consumed due to PKA phosphorylation directly corresponded to cAMP levels in the lysate."}, "5-HT2A [1]": {"target": "T2, 5-HT2A (Homo sapiens, UniProt P28223)", "T2 sequence (P28223 whole entry)": "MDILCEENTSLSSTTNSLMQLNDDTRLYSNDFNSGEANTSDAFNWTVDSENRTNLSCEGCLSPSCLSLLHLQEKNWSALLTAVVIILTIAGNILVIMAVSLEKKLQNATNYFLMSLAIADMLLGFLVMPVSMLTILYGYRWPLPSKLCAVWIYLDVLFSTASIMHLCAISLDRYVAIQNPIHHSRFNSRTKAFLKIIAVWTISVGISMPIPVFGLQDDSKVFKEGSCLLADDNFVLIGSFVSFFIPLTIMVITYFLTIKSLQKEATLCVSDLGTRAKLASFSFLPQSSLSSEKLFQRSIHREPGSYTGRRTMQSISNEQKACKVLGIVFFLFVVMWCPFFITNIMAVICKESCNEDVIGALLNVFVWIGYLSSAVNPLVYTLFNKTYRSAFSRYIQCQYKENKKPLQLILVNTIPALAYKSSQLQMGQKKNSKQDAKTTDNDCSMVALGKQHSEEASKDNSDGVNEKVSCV", "assay": "Radioligand competition binding assay with [3H]ketanserin (scintillation proximity assay) on membranes containing 5-HT2A", "parameters": "purchased PerkinElmer ES-313-M400UA", "conditions": "for competition binding curve result at 5-HT2A receptor (binding / no binding): controls, FIG. 15C", "protocol": "Ki values were calculated from the competition displacement data using the competitive binding analysis from GraphPad PRISM software."}, "5-HT2A [2]": {"target": "T2, 5-HT2A", "conditions": "cited from earlier work"}},
  "note": "Where two headings read alike, the source gives them in different places.",
  "data": [
    {"molecule": "CC(=O)NCCc1c[nH]c2cc(F)cc(N)c12", "note": "[(IX)]", "values": [
      {"measurement": "% cAMP in +5HT1A compared to −5HT1A cultures as dosages increase", "setting": "5-HT1A receptor", "result": "no significant difference"},
      {"measurement": "specific binding in competition with [3H]ketanserin for 5-HT2A sites (competition not complete)", "setting": "5-HT2A [1]; fixed 1 nM [3H]ketanserin, test compound 3 nM to 1 mM, FIG. 15D", "result": "~50", "unit": "%"}
    ]},
    {"molecule": "CC(=O)NCCc1c[nH]c2cc(NC(C)=O)cc(F)c12", "note": "[(X)]", "values": [
      {"measurement": "% cAMP in +5HT1A compared to −5HT1A cultures as dosages increase", "setting": "5-HT1A receptor", "result": "no significant difference"},
      {"measurement": "Ki value at 5-HT2A compared with that of psilocin (in words)", "setting": "5-HT2A [1]; [3H]ketanserin competition, FIG. 16B, indicates comparatively 'loose' binding", "result": "relatively high"}
    ]},
    {"molecule": "CNC(C)Cc1ccc2c(c1)OCO2", "note": "(centres unmarked) [MDMA]", "values": [
      {"measurement": "Ki values for 5-HT2A (in words)", "setting": "5-HT2A [2]", "result": "micromolar range"}
    ]},
    {"molecule": "COc1cc(CCN)cc(OC)c1OC", "note": "[mescaline]", "values": [
      {"measurement": "Ki values for 5-HT2A (in words)", "setting": "5-HT2A [2]; literature values signifying mild or 'loose' binding profiles", "result": "micromolar range"}
    ]},
    {"molecule": "CN(C)CCc1c[nH]c2cccc(O)c12", "note": "[psilocin]", "values": [
      {"measurement": "% cAMP in +5HT1A compared to −5HT1A cultures as dosages increase", "setting": "5-HT1A receptor", "result": "decreased % cAMP"},
      {"measurement": "competition binding curve result at 5-HT2A receptor (binding / no binding)", "setting": "5-HT2A [1]; fixed 1 nM [3H]ketanserin", "result": "binding"}
    ]},
    {"molecule": "NCCc1c[nH]c2ccc(O)cc12", "note": "[serotonin]", "values": [
      {"measurement": "% cAMP in +5HT1A compared to −5HT1A cultures as dosages increase", "setting": "5-HT1A receptor", "result": "decreased % cAMP"}
    ]},
    {"molecule": "N[C@@H](Cc1c[nH]c2ccccc12)C(=O)O", "note": "[tryptophan]", "values": [
      {"measurement": "% cAMP in +5HT1A compared to −5HT1A cultures as dosages increase", "setting": "5-HT1A receptor", "result": "no significant difference"},
      {"measurement": "competition binding curve result at 5-HT2A receptor (binding / no binding)", "setting": "5-HT2A [1]; fixed 1 nM [3H]ketanserin", "result": "no binding"}
    ]}
  ]
}
